Data reported in US20250206738A1, “WRN INHIBITORS” (Nimbus Wadjet, Inc., priority 2023, published 2025).

Target: T1, human Werner helicase (WRN, Uniprot Q14191, amino acids 517-1235 with L1074F point mutation; WRN-BV08) (Homo sapiens, UniProt Q14191, L1074F)
T1 construct: Uniprot Q14191, amino acids 517-1235 with L1074F point mutation; 8xHis (C, cleaved yes); TEV cleavage site (ENLYFQG) (C, cleaved yes); made in house; host or cells: Sf9 insect cells (baculovirus, pFastBac)
Assay: WRN (BV08) ADP-Glo assay
Format: biochemical
Conditions: WRN-BV08 (aa 517-1235, L1074F); read-out: ADP-Glo_hWRN_IC50
From the text: Example 2: WRN (BV08) ADP-Glo Assay Protocol
Bovine skin gelatin (BSG), dimethyl sulfoxide (DMSO), Pluronic F-127 and tris(2-carboxyethyl)phosphine hydrochloride solution (TCEP) were purchased from Sigma-Aldrich (St. Louis, MO) at the highest level of purity possible. Bicine buffer solution was purchased from Alfa Aesar (Tewksbury, MA) and compound NSC-617145 was purchased from Tocris (Minneapolis, MN). DNA duplex was synthesized at BGI (Shenzhen, China) and was composed of strand 1 with the sequence 5′-[…]-3′ (SEQ ID NO.: 1) and strand 2 with the sequence 5′-[…]-3′ (SEQ ID NO.: 2). DNA strands were annealed by heating to 95° C. for 5 minutes followed by slow cooling to room temperature. Compounds in 100% DMSO ([…]) were spotted into a 384-well white polystyrene Optiplate-384 (Perkin Elmer; Waltham, MA) assay plate using a LabCyte Echo 550 (Agilent; Santa Clara, CA). DMSO ([…]) was added to columns 12, rows A-H and column 24, rows I-P for the maximum signal control. Compound NSC-617145 ([…]) was added to columns 12, rows I-P and 24, rows A-H for the minimum signal control (100% inhibition). Compounds/DMSO were preincubated for 15 minutes at 25° C. with […] 2×WRN (BV08), prepared as described below, in assay buffer containing 20 mM Bicine (pH=7.5), 1 mM MgCl2, 10 mM KCl, 0.1% Pluronic F-127, 0.005% BSG, 1 mM TCEP. The reaction was initiated by the addition of […] 2× substrate mixture in assay buffer and incubated for 60 minutes at 25° C. The final concentrations of the assay components were 0.15 nM WRN, […], and 0.1 nM DNA duplex. The final DMSO concentration was 1% and the reference compound concentration (NSC-617145) used for the minimal signal control was […]. The reaction was stopped by the addition of the ADP-Glo Kit components (Promega; Madison, WI) as directed and the relative luminescence units (RLU) were read on an Envision 2104 (Perkin Elmer; Waltham, MA).
% Inhibition Calculation:
Where RLU=relative luminescence units, sample=signal in sample well, and MIN and MAX are the respective minimum and maximum signal controls.
Four-Parameter IC50 Fit Equation:
Where top and bottom are normally allowed to float but may be fixed at 100 or 0 respectively in a 3-parameter fit. Y is the % inhibition and X is the compound concentration.
Molecular Biology and virus production. The DNA encoding human Werner helicase (Uniprot Q14191, amino acids 517-1235 with L1074F point mutation) was generated with codon-optimization for […] expression and subcloned into the pFastBac vector with a TEV cleavable 8×His tag (SEQ ID NO: 5) (WRN—BV08). The baculovirus from the expression plasmid WRN—BV08 was generated from transfection and amplification following the manufacturer's instructions.
Sf9 cells grown in SF900II media were infected with 1:200 WRN—BV08 P2 virus and incubated for protein expression for 72 h at 27° C. The WRN protein was purified using the following protocol. The cell pellets were thawed and resuspended in buffer A (50 mM Tris, pH 7.5, 500 mM NaCl, 1 mM TCEP, 10% Glycerol) supplemented with 0.5% CHAPS, 1 mM PMSF, 1 μg/ml Leupeptin, 1 μg/ml Pepstatin, and the Pierce Universal Nuclease and cocktail tablet. Cleared lysates were loaded onto a Ni Sepharose™ excel column and washed with buffer A and bound protein was eluted with buffer A supplemented with 300 mM imidazole. The eluted protein was dialyzed against buffer A and digested by His-tagged TEV (1:5 ratio) overnight at 4° C. ZnCl2 was added into the sample at final 15 μM before loading onto a second Ni Sepharose™ excel column. Untagged WRN protein was eluted from the column with buffer A supplemented with 20 mM imidazole, dialyzed overnight into buffer B (50 mM Tris, pH 7.5, 1 mM TCEP, 10% Glycerol) supplemented with 150 mM NaCl and loaded onto a Heparin column. Proteins were eluted with a step gradient of buffer B supplemented with 150 mM, 200 mM, 300 mM and 500 mM NaCl. […]

T1 sequence (Q14191 with tags, fused parts or gaps L1074F): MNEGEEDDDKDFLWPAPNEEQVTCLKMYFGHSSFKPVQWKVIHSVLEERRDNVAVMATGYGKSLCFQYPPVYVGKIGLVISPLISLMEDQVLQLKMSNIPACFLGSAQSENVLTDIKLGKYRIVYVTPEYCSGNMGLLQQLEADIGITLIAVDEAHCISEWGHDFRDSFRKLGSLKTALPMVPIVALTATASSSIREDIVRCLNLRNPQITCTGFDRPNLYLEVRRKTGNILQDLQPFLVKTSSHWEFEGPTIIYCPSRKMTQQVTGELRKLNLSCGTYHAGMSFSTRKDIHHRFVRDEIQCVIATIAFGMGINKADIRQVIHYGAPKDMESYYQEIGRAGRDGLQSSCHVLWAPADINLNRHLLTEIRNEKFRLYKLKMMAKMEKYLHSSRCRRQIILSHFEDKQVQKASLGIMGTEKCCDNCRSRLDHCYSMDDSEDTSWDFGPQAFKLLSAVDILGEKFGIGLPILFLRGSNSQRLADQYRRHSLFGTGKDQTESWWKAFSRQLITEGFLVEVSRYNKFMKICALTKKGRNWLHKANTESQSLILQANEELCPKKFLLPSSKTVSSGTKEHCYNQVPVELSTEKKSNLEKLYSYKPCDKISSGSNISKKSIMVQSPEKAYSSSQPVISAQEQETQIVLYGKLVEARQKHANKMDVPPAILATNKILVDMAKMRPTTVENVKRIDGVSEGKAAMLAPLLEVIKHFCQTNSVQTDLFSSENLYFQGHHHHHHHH

| Structure (SMILES) | IC50 [nM] |
| --- | --- |
| CCc1c(N2CCN(C(=O)c3ncnc(C)c3O)[C@H]3CC[C@@H]32)c(=O)c2nn(-c3ccnc(C(F)(F)F)c3)nc2n1CC(=O)NC12CC(C3CC3)(C1)C2 [I-165, N-{3-cyclopropylbicyclo[1.1.1]pentan-1-yl}-2-{5-ethyl-6-[(1S,6S)-5-(5-hydroxy-6-methylpyrimidine-4-carbonyl)-2,5-diazabicyclo[4.2.0]octan-2-yl]-7-oxo-2-[2-(trifluoromethyl)pyridin-4-yl]-2H,4H,7H-[1,2,3]triazolo[4,5-b]pyridin-4-yl}acetamide] | 5 to 50 |
| CCc1c(N2CCN(C(=O)c3c(OC)ncc(C)c3O)CC2)c(=O)c2nn(-c3ccnc(OC)c3)nc2n1CC(=O)NC12CC(N3CCCC3)(C1)C2 [I-126, 2-{5-ethyl-6-[4-(4-hydroxy-2-methoxy-5-methylpyridine-3-carbonyl)piperazin-1-yl]-2-(2-methoxypyridin-4-yl)-7-oxo-2H,4H,7H-[1,2,3]triazolo[4,5-b]pyridin-4-yl}-N-[3-(pyrrolidin-1-yl)bicyclo[1.1.1]pentan-1-yl]acetamide] | > 500 |
| CCc1c(N2CCN(C(=O)c3ncnc(C)c3O)[C@H]3CC[C@@H]32)c(=O)c2nn(-c3ccnc(C(F)F)c3)nc2n1CC(=O)NC12CC(C3CC3)(C1)C2 [I-171, N-{3-cyclopropylbicyclo[1.1.1]pentan-1-yl}-2-{2-[2-(difluoromethyl)pyridin-4-yl]-5-ethyl-6-[(1S,6S)-5-(5-hydroxy-6-methylpyrimidine-4-carbonyl)-2,5-diazabicyclo[4.2.0]octan-2-yl]-7-oxo-2H,4H,7H-[1,2,3]triazolo[4,5-b]pyridin-4-yl}acetamide] | 5 to 50 |
| CCc1c(N2CCN(C(=O)c3ncnc(C)c3O)[C@H]3CC[C@@H]32)c(=O)c2nn(C3=CCOC(C)C3)nc2n1CC(=O)NC12CC(C3CC3)(C1)C2 (stereo partly drawn) [I-162, N-{3-cyclopropylbicyclo[1.1.1]pentan-1-yl}-2-{5-ethyl-6-[(1S,6S)-5-(5-hydroxy-6-methylpyrimidine-4-carbonyl)-2,5-diazabicyclo[4.2.0]octan-2-yl]-2-(2-methyl-3,6-dihydro-2H-pyran-4-yl)-7-oxo-2H,4H,7H-[1,2,3]triazolo[4,5-b]pyridin-4-yl}acetamide] | 5 to 50 |
| CCc1c(N2CCN(C(=O)c3c(F)cnc(OC)c3O)[C@H]3CC[C@@H]32)c(=O)c2nn(C3=CCOCC3)nc2n1CC(=O)NC12CC(C3CC3)(C1)C2 [I-172, N-{3-cyclopropylbicyclo[1.1.1]pentan-1-yl}-2-[2-(3,6-dihydro-2H-pyran-4-yl)-5-ethyl-6-[(1S,6S)-5-(5-fluoro-3-hydroxy-2-methoxypyridine-4-carbonyl)-2,5-diazabicyclo[4.2.0]octan-2-yl]-7-oxo-2H,4H,7H-[1,2,3]triazolo[4,5-b]pyridin-4-yl]acetamide] | 5 to 50 |
| CCc1c(N2CCN(C(=O)c3c(O)c(F)cc4ncoc34)[C@H]3CC[C@@H]32)c(=O)c2nn(C3=CCOCC3)nc2n1CC(=O)NC12CC(C3CC3)(C1)C2 [I-182, N-{3-cyclopropylbicyclo[1.1.1]pentan-1-yl}-2-[2-(3,6-dihydro-2H-pyran-4-yl)-5-ethyl-6-[(1S,6S)-5-(5-fluoro-6-hydroxy-1,3-benzoxazole-7-carbonyl)-2,5-diazabicyclo[4.2.0]octan-2-yl]-7-oxo-2H,4H,7H-[1,2,3]triazolo[4,5-b]pyridin-4-yl]acetamide] | 5 to 50 |
| CCc1c(N2CCN(C(=O)c3ncc4c(c3O)CCO4)CC2)c(=O)n2nc(C3=CCOCC3)nc2n1CC(=O)NC12CC(C)(C1)C2 [I-5, 2-(2-(3,6-dihydro-2H-pyran-4-yl)-5-ethyl-6-(4-(4-hydroxy-2,3-dihydrofuro[2,3-c]pyridine-5-carbonyl)piperazin-1-yl)-7-oxo-[1,2,4]triazolo[1,5-a]pyrimidin-4(7H)-yl)-N-(3-methylbicyclo[1.1.1]pentan-1-yl)acetamide] | 50 to 100 |
| CCc1c(N2CCN(C(=O)c3ncnc(C)c3O)[C@H]3CC[C@@H]32)c(=O)c2nn(-c3ccc(OC)cc3)nc2n1CC(=O)NC12CC(C(C)C)(C1)C2 [I-145, 2-{5-ethyl-6-[(1S,6S)-5-(5-hydroxy-6-methylpyrimidine-4-carbonyl)-2,5-diazabicyclo[4.2.0]octan-2-yl]-2-(4-methoxyphenyl)-7-oxo-2H,4H,7H-[1,2,3]triazolo[4,5-b]pyridin-4-yl}-N-[3-(propan-2-yl)bicyclo[1.1.1]pentan-1-yl]acetamide] | ≤ 5 |
| CCc1c(N2CCN(C(=O)c3ncnc(C)c3O)[C@H]3CC[C@@H]32)c(=O)c2nn(C3=CCOCC3)nc2n1CC(=O)NC12CC(C(C)(C)C)(C1)C2 [I-184, N-{3-tert-butylbicyclo[1.1.1]pentan-1-yl}-2-[2-(3,6-dihydro-2H-pyran-4-yl)-5-ethyl-6-[(1S,6S)-5-(5-hydroxy-6-methylpyrimidine-4-carbonyl)-2,5-diazabicyclo[4.2.0]octan-2-yl]-7-oxo-2H,4H,7H-[1,2,3]triazolo[4,5-b]pyridin-4-yl]acetamide] | 5 to 50 |
| CCc1c(N2CCN(C(=O)c3nocc3O)[C@H]3CC[C@@H]32)c(=O)c2nn(C3=CCOCC3)nc2n1CC(=O)NC12CC(C(C)C)(C1)C2 [I-161, 2-[2-(3,6-dihydro-2H-pyran-4-yl)-5-ethyl-6-[(1S,6S)-5-(4-hydroxy-1,2-oxazole-3-carbonyl)-2,5-diazabicyclo[4.2.0]octan-2-yl]-7-oxo-2H,4H,7H-[1,2,3]triazolo[4,5-b]pyridin-4-yl]-N-[3-(propan-2-yl)bicyclo[1.1.1]pentan-1-yl]acetamide] | ≤ 5 |
| CCc1c(N2CCN(C(=O)c3ncc4c(c3O)CCO4)CC2)c(=O)n2nc(C3=CCOCC3)nc2n1CC(=O)NC12CC(C(F)F)(C1)C2 [I-8, N-(3-(difluoromethyl)bicyclo[1.1.1]pentan-1-yl)-2-(2-(3,6-dihydro-2H-pyran-4-yl)-5-ethyl-6-(4-(4-hydroxy-2,3-dihydrofuro[2,3-c]pyridine-5-carbonyl)piperazin-1-yl)-7-oxo-[1,2,4]triazolo[1,5-a]pyrimidin-4(7H)-yl)acetamide] | 100 to 500 |
| CCc1c(N2CCN(C(=O)c3ncnc(C)c3O)[C@H]3CCC[C@@H]32)c(=O)c2nn(C3=CCOCC3)nc2n1CC(=O)NC12CC(C3CC3)(C1)C2 [I-60, 2-{6-[(4aS,7aS)-4-(5-hydroxy-6-methylpyrimidine-4-carbonyl)-octahydro-1H-cyclopenta[b]pyrazin-1-yl]-2-(3,6-dihydro-2H-pyran-4-yl)-5-ethyl-7-oxo-2H,4H,7H-[1,2,3]triazolo[4,5-b]pyridin-4-yl}-N-{3-cyclopropylbicyclo[1.1.1]pentan-1-yl}acetamide] | 5 to 50 |
| CCc1c(N2CCN(C(=O)c3c(O)ccc4ncoc34)[C@H]3CC[C@@H]32)c(=O)c2nn(-c3ccnc(OC)c3)nc2n1CC(=O)NC12CC(C(C)C)(C1)C2 [I-136, 2-{5-ethyl-6-[(1S,6S)-5-(6-hydroxy-1,3-benzoxazole-7-carbonyl)-2,5-diazabicyclo[4.2.0]octan-2-yl]-2-(2-methoxypyridin-4-yl)-7-oxo-2H,4H,7H-[1,2,3]triazolo[4,5-b]pyridin-4-yl}-N-[3-(propan-2-yl)bicyclo[1.1.1]pentan-1-yl]acetamide] | ≤ 5 |
